Measured values from ChEMBL document CHEMBL6078620, “Design and synthesis of visible light-activatable photocaged peroxides for optical control of ROS-mediated cellular signaling” (Bioorg Med Chem, 2024).
Calls of active or inactive are those of the source. The calls are words filed in the database; no cut-off is given here.

Tests used:
[1] = Photophysical property of the compound assessed as fluorescence quantum yield by UV-Visible spectrophotometric analysis; format: physicochemical
[2] = Chemical stability of compound in PBS buffer at pH 7.4 assessed as parent compound remaining measured after 60 mins by UHPLC analysis; format: physicochemical; details: read-out: Stability
HeLa [3] = assay: Cytotoxicity against human HeLa cells assessed as TBHP release by measuring fluorescence intensity at 50 uM incubated for 5 mins in presence of light irradiation at 375 nm by confocal fluorescence microscopic analysis; format: functional, cell-based
HeLa [4] = assay: Cytotoxicity against human HeLa cells assessed as reduction in cell survival upto 50 uM by CCK-8 assay; format: functional; details: up to 50 µM
HeLa [5] = assay: Cytotoxicity against human HeLa cells assessed as reduction in cell survival upto 50 uM in presence of light irradiation by CCK-8 assay; format: functional; details: up to 50 µM
HeLa [6] = assay: Cytotoxicity against human HeLa cells at 25 uM by CCK-8 assay; format: functional, cell-based
HeLa [7] = assay: Cytotoxicity against human HeLa cells assessed as TBHP release by measuring fluorescence intensity at 10 uM incubated for 5 mins in presence of light irradiation at 375 to 455 nm by confocal fluorescence microscopic analysis; format: functional, cell-based

SMILES | Activity [1] | remaining at 1 h [2] [%] | Activity (HeLa [3]) | Activity (HeLa [4]) [%] | Activity (HeLa [5]) [%] | Activity (HeLa [6]) | Activity (HeLa [7])
CC(C)(C)OOC(=O)OCc1cc(=O)oc2cc(O)c(Br)cc12 | 0.13 | 45 | Active |  |  |  | 
CC(=O)OC(=O)OCc1cc(=O)oc2cc(O)c(Br)cc12 | 0.04 |  |  |  |  |  | 
CC(C)(C)OOC(=O)OCc1cc(=O)oc2c3c(c(Br)cc12)NCCC3 | 0.082 | 50 |  | 63 | 46 | Active | Active
CC(C)(C)OOC(=O)OCc1cc(=O)oc2c3c(c(Br)cc12)NCC3 | 0.14 | 68 |  |  |  |  | 
